Data taken from ChEMBL document CHEMBL1133047, “Synthesis of neurotensin(9-13) analogues exhibiting enhanced human neurotensin receptor binding affinities” (Bioorg Med Chem Lett, 2000).
Where a SMILES comes first, the peptide text is derived from it. The star is where a group is joined. X1 = [N-]=[N+]=N[C@@H](CCCNCCN1CCNCC1)C(=O)*; X5 = [N-]=[N+]=N[C@@H](CCCNCCNCCN)C(=O)*; X2 = [N-]=[N+]=N[C@@H](CCCNCCCCN)C(=O)*; X4 = [N-]=[N+]=N[C@@H](CCCNCCCN)C(=O)*; X3 = [N-]=[N+]=N[C@@H](CCCNCCN)C(=O)*

What follows are molecules tested against Neurotensin receptor type 1 (Homo sapiens, UniProt P30989) (assay: Compound was evaluated for the binding affinity against human neurotensin receptor (hNTR)-1 expressed in CHO cells).
Neurotensin receptor type 1, sequence (P30989 whole entry): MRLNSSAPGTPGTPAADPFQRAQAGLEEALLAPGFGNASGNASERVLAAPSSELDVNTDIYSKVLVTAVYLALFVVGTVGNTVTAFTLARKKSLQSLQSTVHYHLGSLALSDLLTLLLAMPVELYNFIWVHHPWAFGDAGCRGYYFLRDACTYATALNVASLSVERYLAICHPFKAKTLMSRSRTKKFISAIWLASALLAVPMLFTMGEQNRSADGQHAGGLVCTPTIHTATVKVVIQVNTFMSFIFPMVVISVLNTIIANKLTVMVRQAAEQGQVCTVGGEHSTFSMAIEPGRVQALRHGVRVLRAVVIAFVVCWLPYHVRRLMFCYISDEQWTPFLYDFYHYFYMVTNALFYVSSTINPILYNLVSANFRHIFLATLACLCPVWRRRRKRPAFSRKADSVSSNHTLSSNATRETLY
Format: cell-based

Row | IC50 [nM] | SMILES
1 | 3.9 | CC[C@H](C)[C@H](NC(=O)[C@H](Cc1ccc(O)cc1)NC(=O)[C@@H]1CCCN1C(=O)[C@H](CCCNCCCN)N=[N+]=[N-])C(=O)N[C@@H](CC(C)C)C(=O)O (X4-PYIL-OH)
2 | 1.3 | CC[C@H](C)[C@H](NC(=O)[C@H](Cc1ccc(O)cc1)NC(=O)[C@@H]1CCCN1C(=O)[C@H](CCCN)NC(=O)[C@@H](N)CCCN)C(=O)N[C@@H](CC(C)C)C(=O)O
3 | 28 | CC[C@H](C)[C@H](NC(=O)[C@H](Cc1ccc(O)cc1)NC(=O)[C@@H]1CCCN1C(=O)[C@H](CCCNCCN1CCNCC1)N=[N+]=[N-])C(=O)N[C@@H](CC(C)C)C(=O)O (X1-PYIL-OH)
4 | 9.3 | CC[C@H](C)[C@H](NC(=O)[C@H](Cc1ccc(O)cc1)NC(=O)[C@@H]1CCCN1C(=O)[C@H](CCCNCCCCN)N=[N+]=[N-])C(=O)N[C@@H](CC(C)C)C(=O)O (X2-PYIL-OH)
5 | 14.7 | CC[C@H](C)[C@H](NC(=O)[C@H](Cc1ccc(O)cc1)NC(=O)[C@@H]1CCCN1C(=O)[C@H](CCCNCCN)N=[N+]=[N-])C(=O)N[C@@H](CC(C)C)C(=O)O (X3-PYIL-OH)
6 | 19 | CC[C@H](C)[C@H](NC(=O)[C@H](Cc1ccc(O)cc1)NC(=O)[C@@H]1CCCN1C(=O)[C@@H](N)CCCNC(=N)N)C(=O)N[C@@H](CC(C)C)C(=O)O
7 | 8.8 | CC[C@H](C)[C@H](NC(=O)[C@H](Cc1ccc(O)cc1)NC(=O)[C@@H]1CCCN1C(=O)[C@H](CCCNCCNCCN)N=[N+]=[N-])C(=O)N[C@@H](CC(C)C)C(=O)O (X5-PYIL-OH)
